Source: US20240376154A1, “BIS-INTERCALATING PEPTIDES, CONJUGATES AND METHODS OF USE” (ZYMEWORKS BC INC., priority 2023, published 2024)

Tests used:
[1] = Lipophilicity by experimental HPLC retention time; format: physicochemical; details: HPLC retention time as measure of lipophilicity; C18, 10 to 90% CH3CN/H2O with 0.1% FA over 25 min
Experimental: The ability to kill neighboring cells (i.e. bystander effect) is an important property for ADC payloads. For a payload comprising a compound of Formula I to be capable of bystander killing, membrane permeability (or transport) is required and the ability of compounds of Formula I to cross cell membranes and exert a cytotoxic effect was expected to be heavily influenced by lipophilicity.
Compounds were analyzed using an Agilent 1260 HPLC (Agilent Technologies, Inc., Santa Clara, CA) equipped with a Diode array detector and using a Phenomenex Kinetex EVO C18 150×4.6, 2.6 μm column (Phenomenex, Torrance, CA), eluting with 10 to 90% CH3CN/H2O with 0.1% FA over 25 min.

[2] = system: tumour cells (at least 4 of a panel of ovarian, breast, lung, pancreatic, placenta, colon cell lines); assay: In vitro cytotoxicity (cell proliferation, CellTiter-Glo), average over tumour cell line panel; format: cell-based; details: average pIC50 on all cell lines tested; 5 nights incubation; CellTiter-Glo
Experimental: The ability of representative compounds of Formula I to inhibit proliferation of tumour cells in vitro was evaluated in at least 4 of the following cell lines: OVCAR-3 (ovarian, ATCC), SKOV-3 (ovarian, ATCC), IGROV-1 (ovarian, national research council of Canada (NRC)), OV-90 (ovarian, ATCC), OVKATE (Ovarian, Japanese Collection of Research Bioresources (JCRB) (JCRB1044)), JIMT-1 (breast, NRC), SK-BR-3 (breast, ATCC), T-47D (breast, ATCC), ZR-75-1 (breast, ATCC), MDA-MB-468 (breast, AddexBio), BT-20 (breast, ATCC), BT-474 (breast, NRC), MDA-MB-175 (breast, AddexBio), A549 (lung, collaborator), NCI-H226 (lung, NRC), NCI-H661 (lung, NRC), NCI-H1573 (lung, ATCC). NCI-H1563 (lung, ATCC), H358 (lung, collaborator), EBC-1 (lung, Xenotech), H1299 (lung, NRC), NCI-H292 (lung, ATCC), HCC817 (lung, ATCC), NCI-H441 (lung, ATCC), MIA-PaCa-2 (pancreatic, ATCC), BxPC-3 (pancreatic, ATCC), Panc-1 (pancreatic, ATCC), AsPC-1 (pancreatic, ATCC), JEG-3 (placenta, AddexBio), HT-29 (colon, ATCC).
Cells were cultured per vendor instructions and in log-phase growth were detached by brief incubation in 0.05% trypsin, then resuspended in respective culturing media at 20,000 cells/mL (except for ZR-75 cells, which were resuspended at 10,000 cells/mL). 50 μL/well (˜1000 cells/well) were transferred to sterile tissue culture (TC)-treated 384-well plates (ThermoFisher Scientific, Catalogue #164610) and incubated overnight at 37° C. with 5% CO2 to allow the cells to adhere to the plate surface. The next day, in a sterile, V-bottom, 96-well plate, test articles were titrated 1:3 in complete growth medium, creating a 10-point dose response titration with compounds at 3.5-times the desired final concentration. 20 μL from each dilution were added to the 384-well plate containing the seeded cells and these plates were incubated at 37° C. with 5% CO2 for 5 nights. Cell viability was quantified by first incubating with 15 μL/well of CellTiter-Glo® (Promega, Catalogue #G7572) for 30 minutes, then measuring luminescence with a microplate luminometer (BioTek® Synergy™ H1 Microplate Reader). IC50 values were determined by GraphPad Prism (GraphPad Software, San Diego, CA).
The results are presented in Table 7.1 and discussed in Example 7. Table 7.1 presents the results as average pIC50 values. pIC50=−log (IC50), thus, for example, pIC50=9 is equivalent to IC50=1 nM, and pIC50=6 is equivalent to IC50=1 μM.

herring sperm DNA = assay: DNA melting temperature by differential scanning calorimetry (DSC); format: binding; details: DSC; herring sperm DNA; DNA melting temperature = 68° C.
Experimental: Representative compounds prepared as described in Example 2 were assessed in two complementary DNA-binding assays. Increased melting temperature of herring sperm DNA was measured using differential scanning calorimetry (DSC) and binding kinetics were determined by surface plasmon resonance (SPR) using a short DNA hairpin sequence.
DSC experiments were conducted as described in Leng, 2003, Nucleic Acids Res., 31 (21): […], using a Nano DSC (TA Instruments, New Castle, DE) and analyzed using the NanoAnalyze™ software package. Herring sperm DNA solution (Invitrogen 15634017, 10 mg/mL) was diluted to 1 mg/mL (1.4 mM base pair) in BPE buffer (6 mM Na2HPO4, 2 mM NaH2PO4, 1 mM Na4EDTA, pH 7.0). Test articles (20 μL, 10 mM in DMSO) were added and allowed reach equilibrium binding (>3 h), any insoluble material was removed by low-speed centrifugation, then samples were heated from 25 to 110° C. at a scan rate of 1° C./min. Melting curves were plotted and melting temperature was determined using NanoAnalyze™.

Row | SMILES | HPLC [1] [min] | pIC50 (average) [2] | DNA melt (° C.) (herring sperm DNA) [°C]
1 | CN1CC(=O)N2CCCC[C@H]2C(=O)NC[C@@H](NC(=O)c2nc3ccccc3cc2O)C(=O)N2CCCC[C@H]2C(=O)NCC(=O)N(C)CC(=O)N2CCCC[C@H]2C(=O)NC[C@@H](NC(=O)c2nc3ccccc3cc2O)C(=O)N2CCCC[C@H]2C(=O)NCC1=O [Compound 49, N,N′-((7R,10aS,22aS,29R,32aS,44aS)-18,40-dimethyl-6,10,16,19,22,28,32,38,41,44-decaoxotetratetracontahydrotetrapyrido[1,2-a:1′,2′-j:1″,2″-q:1″,2′″-z][1,4,7,10,13,17,20,23,26,29]decaazacyclodotriacontine-7,29-diyl)bis(3-hydroxyquinoline-2-carboxamide)] | 15.7 | 7.2 | 97
2 | CC(C)[C@H]1C(=O)NC[C@@H](NC(=O)c2nc3ccccc3cc2O)C(=O)N2CCCC[C@H]2C(=O)NCC(=O)N(C)CC(=O)N(C)[C@@H]([C@@H](C)OC(C)(C)C)C(=O)NC[C@@H](NC(=O)c2nc3ccccc3cc2O)C(=O)N2CCCC[C@H]2C(=O)NCC(=O)N(C)CC(=O)N1C [Compound 54, N,N′-((7R,11S,19aS,26R,30S,38aS)-11-((R)-1-(tert-butoxy)ethyl)-30-isopropyl-12,15,31,34-tetramethyl-6,10,13,16,19,25,29,32,35,38-decaoxohexatriacontahydro-2H,6H-dipyrido[1,2-a:1′,2′-q][1,4,7,10,13,17,20,23,26,29]decaazacyclodotriacontine-7,26-diyl)bis(3-hydroxyquinoline-2-carboxamide)] | 18.4 | 8.1 | 88
3 | CC(C)[C@H]1C(=O)NC[C@@H](NC(=O)c2nc3ccccc3cc2O)C(=O)N2CCCC[C@H]2C(=O)NCC(=O)N(C)CC(=O)N(C)[C@@H]([C@@H](C)O)C(=O)NC[C@@H](NC(=O)c2nc3ccccc3cc2O)C(=O)N2CCCC[C@H]2C(=O)NCC(=O)N(C)CC(=O)N1C [Compound 55, N,N′-((7R,11S,19aS,26R,30S,38aS)-11-((R)-1-hydroxyethyl)-30-isopropyl-12,15,31,34-tetramethyl-6,10,13,16,19,25,29,32,35,38-decaoxohexatriacontahydro-2H,6H-dipyrido[1,2-a:1′,2′-q][1,4,7,10,13,17,20,23,26,29]decaazacyclodotriacontine-7,26-diyl)bis(3-hydroxyquinoline-2-carboxamide)] | 10.6 | inactive | 86
4 | CC[C@H](C)[C@H]1C(=O)NC[C@@H](NC(=O)c2nc3ccccc3cc2O)C(=O)N2CCCC[C@H]2C(=O)NCC(=O)N(C)CC(=O)N(C)[C@@H](C(C)C)C(=O)NC[C@@H](NC(=O)c2nc3ccccc3cc2O)C(=O)N2CCCC[C@H]2C(=O)NCC(=O)N(C)CC(=O)N1C [Compound 72] | 18.0 | 7.6 | 89
5 | CC(C)[C@H]1C(=O)NC[C@@H](NC(=O)c2nc3ccccc3cc2O)C(=O)N2CCCC[C@H]2C(=O)NCC(=O)N(C)CC(=O)N2CCC[C@H]2C(=O)NC[C@@H](NC(=O)c2nc3ccccc3cc2O)C(=O)N2CCCC[C@H]2C(=O)NCC(=O)N(C)CC(=O)N1C [Compound 77] | 15.0 | 6.9 | 88
6 | CC(C)[C@H]1C(=O)NC[C@@H](NC(=O)c2nc3ccccc3cc2O)C(=O)N2CCCC[C@H]2C(=O)NCC(=O)N(C)CC(=O)N2CCCC[C@H]2C(=O)NC[C@@H](NC(=O)c2nc3ccccc3cc2O)C(=O)N2CCCC[C@H]2C(=O)NCC(=O)N(C)CC(=O)N1C [Compound 82] | 16.4 | 8.0 | 92
7 | CC(C)[C@H]1C(=O)NC[C@@H](NC(=O)c2nc3ccccc3cc2O)C(=O)N2CCCC[C@H]2C(=O)NCC(=O)N(C)CC(=O)N2CCCCC[C@H]2C(=O)NC[C@@H](NC(=O)c2nc3ccccc3cc2O)C(=O)N2CCCC[C@H]2C(=O)NCC(=O)N(C)CC(=O)N1C [Compound 88, N,N′-((5aS,9R,15aS,24S,28R,34aS)-24-isopropyl-20,23,39-trimethyl-6,10,16,19,22,25,29,35,38,41-decaoxotetracontahydro-1H,12H-azepino[1,2-j]dipyrido[1,2-a:1′,2′-q][1,4,7,10,13,17,20,23,26,29]decaazacyclodotriacontine-9,28-diyl)bis(3-hydroxyquinoline-2-carboxamide)] | 16.4 | 8.5 | 88
8 | CC(C)[C@H]1C(=O)NC[C@@H](NC(=O)c2nc3ccccc3cc2O)C(=O)N2CCCC[C@H]2C(=O)NCC(=O)N(C)CC(=O)N(C)[C@@H](C2CCCCC2)C(=O)NC[C@@H](NC(=O)c2nc3ccccc3cc2O)C(=O)N2CCCC[C@H]2C(=O)NCC(=O)N(C)CC(=O)N1C [Compound 97, N,N′-((7R,11S,19aS,26R,30S,38aS)-11-cyclohexyl-30-isopropyl-12,15,31,34-tetramethyl-6,10,13,16,19,25,29,32,35,38-decaoxohexatriacontahydro-2H,6H-dipyrido[1,2-a:1′,2′-q][1,4,7,10,13,17,20,23,26,29]decaazacyclodotriacontine-7,26-diyl)bis(3-hydroxyquinoline-2-carboxamide)] | 18.9 | 8.4 | 86
9 | CC(C)[C@H]1COC[C@@H](NC(=O)c2nc3ccccc3cc2O)C(=O)N2CCCC[C@H]2C(=O)NCC(=O)N(C)CC(=O)N(C)[C@@H](C(C)C)COC[C@@H](NC(=O)c2nc3ccccc3cc2O)C(=O)N2CCCC[C@H]2C(=O)NCC(=O)N(C)CC(=O)N1C [Compound 172, N,N′-((7R,11S,19aS,26R,30S,38aS)-11,30-diisopropyl-12,15,31,34-tetramethyl-6,13,16,19,25,32,35,38-octaoxodotriacontahydro-2H,6H,10H,25H-dipyrido[2,1-b1: 2′,1′-l][1,17]dioxa[4,7,10,13,20,23,26,29]octaazacyclodotriacontine-7,26-diyl)bis(3-hydroxyquinoline-2-carboxamide)] | 18.2 | 7.9 | 91
10 | CN1CC(=O)N2CCCC[C@H]2COC[C@@H](NC(=O)c2nc3ccccc3cc2O)C(=O)N2CCCC[C@H]2C(=O)NCC(=O)N(C)CC(=O)N2CCCC[C@H]2C(=O)NC[C@@H](NC(=O)c2nc3ccccc3cc2O)C(=O)N2CCCC[C@H]2C(=O)NCC1=O [Compound 187, N,N′-((7R,10aS,22aS,29R,32aS,44aS)-18,40-dimethyl-6,16,19,22,28,32,38,41,44-nonaoxodotetracontahydro-6H-tetrapyrido[2,1-b1: 2′,1′-c: 2″,1″-1:2′″,1′″-s][1]oxa[4,7,10,13,17,20,23,26,29]nonaazacyclodotriacontine-7,29-diyl)bis(3-hydroxyquinoline-2-carboxamide)] | 16.6 | 8.0 | 94
